Three molecules from PubChem BioAssay (NCI) can be followed below.

Among the test systems are A549 NSCLC; HCT-15 colon; HOP-62 NSCLC; MCF7 breast; NCI-H460 lung; NCI/ADR-RES ovarian; SNB-19 CNS; U251 CNS; UACC-62 melanoma; UO-31 renal.
Common to all, as to assay: DTP human tumour cell line panel, 48 h

Each structure is given as a SMILES string.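 Results reflect a 48-hour exposure of cells in 96-well plates to compound at five concentrations. GI50 = concentration required for 50% inhibition of growth. TGI: concentration producing complete growth inhibition.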 Where only a bound is given, the exact number is not on record here.

What is called GI50 is the concentration at which growth is held to half of that of the control. In general, TGI refers to the concentration at which net growth stops.

As for `Cc1cc(Nc2nc(-c3cccnc3)nc3ccccc23)n[nH]1`, the GI50 in the test with A549 NSCLC is 0.672 µM; with HCT-15 colon it was 0.512 µM; with HOP-62 NSCLC, 2.68 µM; with MCF7 breast, 1.28 µM; with NCI-H460 lung it was 1.84 µM; with NCI/ADR-RES ovarian, 5.13 µM. In addition, the GI50 in the test with SNB-19 CNS was 5.98 µM; with U251 CNS, 1.25 µM; in the test on UACC-62 melanoma it was 0.943 µM; in the test on UO-31 renal, 0.443 µM. The TGI is above 100 µM with A549 NSCLC; above 100 µM with HCT-15 colon; above 89.8 µM in the test on HOP-62 NSCLC; above 100 µM in the test on MCF7 breast; above 100 µM in the test on NCI-H460 lung; above 92.7 µM in the test with NCI/ADR-RES ovarian. The TGI in the test with SNB-19 CNS was above 100 µM; with U251 CNS, above 53.1 µM; with UACC-62 melanoma it was 35.6 µM; in the test on UO-31 renal, above 100 µM.

Take `COc1cccc(-c2ccc3c(c2)C2CCN(Cc4ccccc4)C3C2)c1` (stereo not given): the GI50 in the test with A549 NSCLC was 7.72 µM; in the test on HCT-15 colon, 4.86 µM; with HOP-62 NSCLC, 12.1 µM; in the test with MCF7 breast it was 4.34 µM; in the test with NCI-H460 lung, 4.13 µM; in the test with NCI/ADR-RES ovarian it was 8.94 µM. Moreover, the GI50 in the test on SNB-19 CNS was 12.9 µM; in the test on U251 CNS, 7.63 µM; with UACC-62 melanoma, 8.48 µM; with UO-31 renal it was 6.79 µM. Moreover, the TGI in the test with A549 NSCLC came out at 31.8 µM; in the test with HCT-15 colon it was 19.7 µM; in the test with HOP-62 NSCLC, 35.6 µM; with MCF7 breast, 19.5 µM; in the test with NCI-H460 lung, 15.7 µM; in the test with NCI/ADR-RES ovarian it was 32.5 µM. Besides, the TGI was 30.5 µM in the test on SNB-19 CNS, 22 µM in the test on U251 CNS, 22 µM in the test with UACC-62 melanoma and 21.6 µM in the test with UO-31 renal.

As to `COc1cc(OC)c2nccc(NCCCN(C)C)c2c1[N+](=O)[O-]`, the TGI in the test on A549 NSCLC, in the test on HCT-15 colon, with HOP-62 NSCLC, in the test with MCF7 breast, in the test with NCI-H460 lung and in the test on NCI/ADR-RES ovarian was above 100 µM each time. The TGI in the test with SNB-19 CNS, in the test on U251 CNS, in the test on UACC-62 melanoma and in the test on UO-31 renal was above 100 µM each time.
